Results: US20040253647A1, “Cell-based high-throughput screening methods” (priority 2001, published 2004)
Peptide text beside a SMILES is read from it. * marks the point of attachment. Cbz = O=C(OCc1ccccc1)*

Experiments:
Format in all cases: cell-based, murine
[1] = test system: βCTF levels in L/APP cells (L cell line overexpressing human APP695); assay: βCTF ELISA (C1/6.1 capture, JRF/AβN/25 detection) on cell lysates; conditions: for βCTF levels: control 2.7 (FIG. 8A); for reduction of βCTF levels relative to control: 10 μg/ml for 6 hours (FIG. 10B)
Procedure: (§1) Cell lines, cDNA constructs, and transfections. Ltk-cells (a murine fibroblast-like cell line; (S. Kit et al., 1967, J. Virol., 1(1): 238-240) were maintained at 37° C. and 5% CO2 in high glucose DMEM, (Celigro, Hedon, Va.) supplemented to contain 10% fetal bovine serum (Gemini, Woodland, Calif.), 2 mM glutamax I (Gibco/BRL, Gaithersburg, Md.), and penicillin/streptomycin (Celigro). cDNAs encoding human APP695 and human rab5 were inserted into the mammalian expression vector pcDNA3 (Invitrogen, Carlsbad, Calif.). Following transfection using lipofectin (manufacturer's protocol; Gibco/BRL), stable L cell lines overexpressing APP695 were selected in 400 μg/ml G418 (Gemini) and screened for expression. Transient transfections with rab5 were done using lipofectAMINE (Gibco/BRL) or fugene (Boehringer-Mannheim, Indianapolis, Ind.) according to the manufacturers' protocol.
(§2) Sandwich ELISAs. Sandwich ELISAs using the antibodies as presented in Table 1 were performed essentially as has been reported (C. Janus et al. Id.; R. Rozmahel et al., Neurobiology of Aging, 23:187-194; and P. M. Mathews et al., 2002, J. Biol. Chem., 277: 5299-5307), with modifications to detect cell-associated APP metabolites. The wells of Nunc-Immuno PIates (Nunc A/S, Roskilde, Denmark) were coated overnight at 4° C. using 20 μg/ml of C1/6.1 and the remaining protein binding sites were blocked by incubating with 1% Block Ace (Yukijirushi Milk, Sapporo Japan) in PBS (200 μl/well) for 4 hours at room temperature.
(§3) For the βCTF ELISA, a synthetic peptide was prepared, i.e., […], (SEQ ID NO:1), that contains both the JRF/AβN/25 epitope (SEQ ID NO:4) and the C1/6.1 epitope (SEQ ID NO:2), (see Table I). For the APP/total CTF ELISA, a glutathione S-transferase fusion protein containing the C-terminal 99 residues of human APP (GST-βPP672-770; (K. Islam and E. Levy, 1997, Am. J. Pathol. 151(1):265-71) was prepared. This fusion protein contains both the C1/6.1 and C2/7.1 epitopes. These standards, prepared as stock solutions, were dissolved in DMSO, stored at −70° C., and were further diluted in buffer containing 20 mM Na phosphate, 2 mM EDTA,. 400 mM NaCl, 0.2% BSA, 0.05% CHAPS, 0.4% Block Ace and 0.05% NaN3, pH 7.0 immediately, prior to use.
(§4) ELISA plates were incubated overnight at 4° C. with samples and standards. Samples, as described herein, were cell lysates prepared in 1% Triton X-100®, 140 mM NaCl, 25 mM Tris (pH 7.4), 0.5 mM EDTA, and protease inhibitors. Lysates were vortexed briefly, allowed to rest on ice for 30 minutes, and centrifuged at 6,000 rpm in an Eppendorf centrifuge. The supernatant was used for the ELISA. Following overnight binding of APP and APP metabolites to the capture antibody (C/1/6.1), the wells were washed twice with phosphate buffered saline (PBS) containing 0.5% Triton X-100®/0.05% Tween-20 followed by two washes with PBS. A solution containing 20 mM Na phosphate, 2 mM EDTA, 400 mM NaCl, and 1% BSA, pH 7.0 was then added to the wells for 1 hour at room temperature.
(§5) APP and cell-associated APP metabolites were detected by incubating for 4 hours at room temperature with horseradish peroxidase (HRP)-conjugated C2/7.1 or JRF/AβN/25 diluted in 20 mM Na phosphate, 2 mM EDTA, 400 mM NaCl, 1% BSA, pH 7.0. Thereafter, the wells were again washed twice with phosphate buffered saline (PBS) containing 0.5% Triton X-100®/0.05% Tween-20, followed by two washes with PBS. ELISA plates were developed using a color reaction (TMB Microwell Peroxidase Substrate System, Kirkegaard & Perry, Gaithersburg, MD) and the OD450 was read. ELISA signals are reported as the mean ±SE of two or more wells in femtomoles per ml relative to standard.
(§6) Preparation of cell lysates for ELISA. Cells were seeded into 6-well dishes and allowed to settle overnight. […]

[2] = test system: APP holoprotein and all CTFs in L/APP cells; assay: APP/total CTF ELISA (C1/6.1 capture, C2/7.1 detection) on L/APP cell lysates; conditions: for cellular APP levels (APP/total CTF) relative to untreated control cells: 10 μg/ml for 6 hours (FIG. 10A)
Procedure: as §1, §2, §3, §4, §5, §6

[3] = test system: APP holoprotein and all CTFs in parental L cells; assay: APP/total CTF ELISA on parental L cell lysates; conditions: 10 μM calpeptin 6 hours (FIG. 7B)
Procedure: as §1
Sandwich ELISAs. […]
APP and cell-associated APP metabolites were detected by incubating for 4 hours at room temperature with horseradish peroxidase (HRP)-conjugated C2/7.1 or JRF/AβN/25 diluted in 20 mM Na phosphate, 2 mM EDTA, 400 mM NaCl, 1% BSA, pH 7.0. […] ELISA plates were developed using a color reaction (TMB Microwell Peroxidase Substrate System, Kirkegaard & Perry, Gaithersburg, MD) and the OD450 was read. […]

[4] = test system: APP holoprotein, αCTF and βCTF in L/APP cells; assay: Metabolic pulse-chase labeling and immunoprecipitation of APP and CTFs; conditions: for levels of αCTFs and βCTFs after 1 hour chase (C1/6.1 immunoprecipitation): 10 μM, 3 hours pretreatment plus pulse and chase (FIG. 1)
Procedure: Metabolic labeling, immunoprecipitation and Western blot analysis. To detect APP and CTFs, 5×10^5 cells were seeded onto 35-mm diameter tissue culture dishes followed by induction of human APP695 expression with 20 mM butyrate for 24 hours (P. M. Mathews et al., 1992, J. Cell. Biol., 118(5):1027-1040; P. M. Mathews et al., 2000 Mol Med., 6(10)878-891). Cultures were methionine/cysteine starved for 20 minutes, pulse-labeled for 15 minutes with 100 μCi/ml TRANS^35S-LABEL (Dupont-NEN), washed, and chased in complete medium containing 2 mM unlabeled methionine (P. M. Mathews et al., 1992, J. Cell. Biol., 118(5):1027-1040). Calpain inhibitors, as described herein, were added to the growth medium 3 hours prior to methionine/cysteine starvation and then throughout pulse-labeling and chase.
Cell lysates (prepared in 1% Triton X-100, 140 mM NaCl, 25 mM Tris pH 7.4, 0.5 mM EDTA, 10 mM methionine and protease inhibitors; (P. M. Mathews et al., 1992, J. Cell. Biol., 118(5):1027-1040; A. Beggan et al., 1996, J. Biol. Chem., 271(34):20895-20902) were subjected to immunoprecipitation with various monoclonal antibodies as described in Example 2. Immunoprecipitated proteins were sized by SDS-PAGE and labeled proteins were visualized by exposure to x-ray film and analyzed quantitatively using a Storm 840 phosphorimager (Molecular Dynamics/Amersham Biosciences, Sunnyvale, Calif. and/or by scan analysis (NIH Image).
To determine whether a particular monoclonal antibody detected APP holoprotein and/or αCTF and/or βCTF or both, L cells overexpressing human APP695 (L/APP cells) were metabolically labeled for 15 minutes, and then were chased for 1 hour (FIG. 1, lanes 1-6).
Thus, in addition to control conditions, cells were treated for 3 hours prior to, as well as during, the pulse and chase periods with the indicated calpain inhibitors (FIG. 1, lanes 7-18) to increase the levels of metabolically labeled CTFs prior to immunoprecipitation. Equal volumes of detergent lysates prepared from the pulse and chase periods were subjected to immunoprecipitation with each of the monoclonal antibodies and labeled APP species were resolved on 4-20% gradient SDS-PAGE.
The pulse-chase experiment shown in FIGS. 2A and 2B was designed to determine if C1/6.1 was able to detect other species of CTFs (e.g. the γCTF). Accordingly, L/APP cells were pulse-labeled for 15 minutes and chased for the indicated times up to 6 hours prior to immunoprecipitation of lysates with C1/6.1.

APP CTFs in L/APP cells = assay: Western blot analysis using C1/6.1; conditions: 10 μm calpeptin 6 hours (FIG. 5A)
Procedure: For Western blot analysis, protein concentration in cell lysates was determined (BioRad DC Protein Assay, BioRad, Rockville Center, N.Y.), and equal amounts of proteins were separated by SDS-PAGE and transferred to PVDF membrane. Membranes were incubated in C1/6.1 (2 μg/ml) overnight, washed, and incubated with HRP-conjugated goat anti-mouse IgG for 1.5 hours. Membranes were incubated in ECL substrate (Amersham, Arlington Heights, Ill.) and exposed to x-ray film.
In this rab5 overexpression experiment, L/APP cells were transiently-transfected with no DNA (FIG. 5A, lanes 1 and 2), or rab5 cDNA (FIG. 5A, lanes 3-5) and the levels of APP holoprotein and CTFs were determined by Western blot analysis using C1/6.1 (FIG. 5A).

[5] = test system: Aβ1-40 secreted by L/APP cells; assay: Aβ1-40 ELISA of growth media; conditions: 10 μg/ml, 6 hour incubation (FIG. 10C)
Procedure: L/APP cells were plated at equal density and APP expression was induced. Cells were then incubated for 6 hours without treatment, or with the addition of 10 μg/ml cyclohexamide or 10 μg/ml 3-methyl adenine (3MA). APP/total CTF levels (FIG. 10A) and βCTF levels (FIG. 10B) in cell lysates were then determined by ELISA. Aβ1-40 (FIG. 10C) and Aβ1-42 (FIG. 10D) levels secreted into the growth media during this 6 hour incubation were determined by ELISA (C. Janus et al., 2000, Nature, 408(6815):979 982). Data are expressed as a percentage of, the level seen in untreated control cells for each assay.
In addition, Aβ levels in the growth media were examined from these test cells. […] Again, the reduction in Aβ generation obtained with cyclohexamide treatment is due to non-specific cytotoxicity, while the reduction in Aβ generation obtained following 3MA treatment is linked to a specific reduction in βCTF generation.

[6] = 75 μg/ml cyclohexamide 6 hours, versus control

CCCC[C@@H](C=O)NC(=O)[C@H](CC(C)C)NC(=O)OCc1ccccc1 [calpeptin]
βCTF levels ([1]; 10 μM calpeptin 6 hours): 5.4 fmol/mL | amount of βCTFs detected by ELISA ([1]; 10 μM calpeptin 6 hours, untreated 16.1 (FIG. 5B)): 26.0 fmol/mL | βCTF levels detected by ELISA ([1]; 10 μM calpeptin for 6 hours, untreated 5.8±0.3 (FIG. 4)): 10.0 ± 0.6 fmol/mL | APP/total CTF ELISA signal ([2]; 10 μM calpeptin 6 hours (FIG. 7B)): greatly increased the ELISA signal | change in APP/total CTF levels ([2]; 10 μM calpeptin 6 hours (FIG. 8B)): smaller relative increase in APP/total CTF levels | APP/total CTF ELISA signal [3]: increased the signal in the L cells, although not to a statistically significant degree | generation of α and βCTFs during the initial 1 hour of chase ([4]; 10 μM calpeptin (FIG. 2B)): substantially increased the generation of both α and βCTFs | turnover of CTFs ([4]; 10 μM calpeptin (FIG. 2B)): did not appear to reduce the turnover of CTFs | turnover of APP holoprotein ([4]; 10 μM calpeptin, chase up to 6 hours (FIG. 2A)): unchanged | levels of αCTFs and βCTFs after 1 hour chase (C1/6.1 immunoprecipitation) [4]: substantial and apparently proportionate increase in the levels of both αCTFs and βCTFs | levels of CTFs by Western blot (APP CTFs in L/APP cells): greatly increased the levels of CTFs detected

CC(C)[C@H](NC(=O)OCc1ccccc1)C(=O)N[C@H](C=O)Cc1ccccc1 [calpain inhibitor III] (Cbz-Val-Phe-aldehyde)
levels of αCTFs and βCTFs after 1 hour chase (C1/6.1 immunoprecipitation) [4]: substantial and apparently proportionate increase in the levels of both αCTFs and βCTFs

C[C@@H]1C[C@@H]([C@H](O)CC2CC(=O)NC(=O)C2)C(=O)[C@@H](C)C1 [cyclohexamide]
reduction of βCTF levels relative to control [1]: reduced βCTF levels somewhat more | βCTF levels ([1]; 75 μg/ml cyclohexamide 6 hours): 0.6 fmol/mL | reduction of βCTF levels [1, 6]: 78% | cellular APP levels (APP/total CTF) relative to untreated control cells [2]: cyclohexamide treatment did | APP/total CTF levels ([2]; 75 μg/ml cyclohexamide 6 hours, control 608 (FIG. 8B)): 74 fmol/mL | reduction of APP/total CTF levels [2, 6]: 88% | Aβ1-40 levels in growth media relative to control [5]: reduction in Aβ1-40 levels relative to control

Cn1cnc(N)c2ncnc1-2 [3MA, 3-methyl adenine]
reduction of βCTF levels relative to control [1]: 50% | cellular APP levels (APP/total CTF) relative to untreated control cells [2]: did not reduce cellular APP levels | Aβ1-40 levels in growth media relative to control [5]: reduction in Aβ1-40 levels relative to control
